Measurements published in the kinase profiling compilation of Christmann-Franck et al. (2016).

Tests used:
Assay in all cases: radiometric filter-binding kinase assay
ERBB4 (human) = ERBB4 (human) (UniProt Q15303)
CaMK1 (human) = CaMK1 (human) (UniProt Q14012)
PRKACA (human) = PRKACA (human) (UniProt P17612)
PRKCA (human) = PRKCA (human) (UniProt P17252)
MINK1 (human) = MINK1 (human) (UniProt Q8N4C8)
EPHA2 (human) = EPHA2 (human) (UniProt P29317)
MST4 (human) = MST4 (human) (UniProt Q9P289)
NUAK1 (human) = NUAK1 (human) (UniProt O60285)
CSK (human) = CSK (human) (UniProt P41240)
PHKG1 (human) = PHKG1 (human) (UniProt Q16816)
MARK2 (human) = MARK2 (human) (UniProt Q7KZI7)
PAK7 (human) = PAK7 (human) (UniProt Q9P286)
INSR (human) = INSR (human) (UniProt P06213)
INSRR (human) = INSRR (human) (UniProt P14616)
Chain of INSRR (human) (P14616 whole entry, looked up): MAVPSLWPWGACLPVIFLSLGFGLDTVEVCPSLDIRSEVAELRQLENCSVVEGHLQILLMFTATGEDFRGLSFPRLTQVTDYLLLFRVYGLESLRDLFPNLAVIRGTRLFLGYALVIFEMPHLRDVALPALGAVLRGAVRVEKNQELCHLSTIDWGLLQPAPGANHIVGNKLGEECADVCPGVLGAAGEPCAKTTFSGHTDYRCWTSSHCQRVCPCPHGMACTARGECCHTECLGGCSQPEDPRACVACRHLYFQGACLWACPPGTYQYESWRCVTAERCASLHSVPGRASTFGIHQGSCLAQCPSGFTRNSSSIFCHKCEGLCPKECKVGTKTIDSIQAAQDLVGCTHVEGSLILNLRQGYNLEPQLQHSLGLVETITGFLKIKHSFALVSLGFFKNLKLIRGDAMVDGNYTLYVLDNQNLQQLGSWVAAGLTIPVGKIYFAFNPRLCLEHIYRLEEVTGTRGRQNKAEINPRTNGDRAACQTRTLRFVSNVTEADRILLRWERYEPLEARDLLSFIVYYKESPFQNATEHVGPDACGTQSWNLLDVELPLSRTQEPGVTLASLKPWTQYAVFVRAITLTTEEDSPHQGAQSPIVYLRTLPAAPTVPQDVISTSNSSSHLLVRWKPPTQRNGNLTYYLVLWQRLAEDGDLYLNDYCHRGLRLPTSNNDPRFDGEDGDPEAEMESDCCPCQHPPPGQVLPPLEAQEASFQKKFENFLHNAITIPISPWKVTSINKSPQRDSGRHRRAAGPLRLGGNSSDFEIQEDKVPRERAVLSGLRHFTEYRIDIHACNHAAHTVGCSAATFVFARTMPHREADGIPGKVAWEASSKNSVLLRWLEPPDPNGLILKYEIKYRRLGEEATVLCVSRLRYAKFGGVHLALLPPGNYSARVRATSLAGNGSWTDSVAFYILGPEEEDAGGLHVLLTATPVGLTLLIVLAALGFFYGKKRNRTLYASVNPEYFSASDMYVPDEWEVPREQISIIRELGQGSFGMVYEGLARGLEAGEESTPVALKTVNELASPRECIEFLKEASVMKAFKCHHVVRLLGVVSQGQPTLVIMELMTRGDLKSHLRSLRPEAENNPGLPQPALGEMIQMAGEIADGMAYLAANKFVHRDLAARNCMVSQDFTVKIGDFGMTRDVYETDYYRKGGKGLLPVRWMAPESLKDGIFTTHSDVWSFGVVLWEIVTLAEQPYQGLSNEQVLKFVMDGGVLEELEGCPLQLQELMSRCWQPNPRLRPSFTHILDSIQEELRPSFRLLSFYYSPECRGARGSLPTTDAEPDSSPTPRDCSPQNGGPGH

DYRK2 (human) = DYRK2 (human) (UniProt Q92630)
Chain of DYRK2 (human) (Q92630 whole entry, looked up): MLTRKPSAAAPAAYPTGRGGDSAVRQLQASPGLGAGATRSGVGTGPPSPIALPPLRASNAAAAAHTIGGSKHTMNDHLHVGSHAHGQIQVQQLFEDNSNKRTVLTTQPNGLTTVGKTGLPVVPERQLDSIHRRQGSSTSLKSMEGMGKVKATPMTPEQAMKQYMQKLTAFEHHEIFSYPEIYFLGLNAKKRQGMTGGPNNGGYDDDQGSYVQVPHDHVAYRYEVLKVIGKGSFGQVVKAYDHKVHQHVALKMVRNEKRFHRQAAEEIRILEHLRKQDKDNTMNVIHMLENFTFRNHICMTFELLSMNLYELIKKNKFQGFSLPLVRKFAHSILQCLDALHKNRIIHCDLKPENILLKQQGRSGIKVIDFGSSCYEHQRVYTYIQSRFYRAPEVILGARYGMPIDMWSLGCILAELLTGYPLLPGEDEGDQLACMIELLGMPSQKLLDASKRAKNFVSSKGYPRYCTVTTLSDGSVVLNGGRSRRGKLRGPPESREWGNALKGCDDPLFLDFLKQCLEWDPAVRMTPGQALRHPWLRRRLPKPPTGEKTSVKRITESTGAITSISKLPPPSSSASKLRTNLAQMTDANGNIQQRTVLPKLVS

RPS6KA5 KD1 KD2 (human) = RPS6KA5 KD1 KD2 (human) (UniProt O75582)
CAMKK2 (human) = CAMKK2 (human) (UniProt Q96RR4)
CDK2 CCNA2 (human) = CDK2 CCNA2 (human) (UniProt P20248+P24941)
MAP2K1 (human) = MAP2K1 (human) (UniProt Q02750)
NEK2 (human) = NEK2 (human) (UniProt P51955)
HIPK3 (human) = HIPK3 (human) (UniProt Q9H422)
MAPK15 (human) = MAPK15 (human) (UniProt Q8TD08)
SRPK1 (human) = SRPK1 (human) (UniProt Q96SB4)
Chain of SRPK1 (human) (Q96SB4 whole entry, looked up): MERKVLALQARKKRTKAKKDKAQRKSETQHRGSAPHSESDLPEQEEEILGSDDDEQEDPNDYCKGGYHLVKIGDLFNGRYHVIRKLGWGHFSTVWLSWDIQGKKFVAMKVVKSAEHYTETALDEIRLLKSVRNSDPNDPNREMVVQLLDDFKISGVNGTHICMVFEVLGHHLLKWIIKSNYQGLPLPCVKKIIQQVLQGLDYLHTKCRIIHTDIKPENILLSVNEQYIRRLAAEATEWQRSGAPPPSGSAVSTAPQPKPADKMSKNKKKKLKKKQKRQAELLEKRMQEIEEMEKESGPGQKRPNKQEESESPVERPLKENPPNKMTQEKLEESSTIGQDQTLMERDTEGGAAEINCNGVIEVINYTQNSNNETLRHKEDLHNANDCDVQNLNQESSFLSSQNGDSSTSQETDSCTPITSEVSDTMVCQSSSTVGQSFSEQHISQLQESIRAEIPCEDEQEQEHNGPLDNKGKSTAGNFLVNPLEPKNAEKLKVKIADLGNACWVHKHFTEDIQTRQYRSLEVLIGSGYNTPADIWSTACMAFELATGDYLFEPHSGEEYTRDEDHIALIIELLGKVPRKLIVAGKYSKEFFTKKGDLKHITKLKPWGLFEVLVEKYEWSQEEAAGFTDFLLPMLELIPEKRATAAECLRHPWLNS

NEK6 (human) = NEK6 (human) (UniProt Q9HC98)
Chain of NEK6 (human) (Q9HC98 whole entry, looked up): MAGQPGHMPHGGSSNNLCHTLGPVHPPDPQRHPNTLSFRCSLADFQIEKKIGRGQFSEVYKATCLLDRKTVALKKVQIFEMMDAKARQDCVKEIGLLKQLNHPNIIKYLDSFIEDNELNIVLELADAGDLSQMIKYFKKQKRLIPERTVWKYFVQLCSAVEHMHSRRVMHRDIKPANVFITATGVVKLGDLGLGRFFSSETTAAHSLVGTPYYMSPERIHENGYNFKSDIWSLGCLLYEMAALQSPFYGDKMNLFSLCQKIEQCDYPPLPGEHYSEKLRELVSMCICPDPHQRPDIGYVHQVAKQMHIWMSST

PRKAA1 or PRKAA2 (rat) = settings: accession and sequence are those of the human protein
BRSK1 (human) = BRSK1 (human) (UniProt Q8TDC3)
RIPK2 (human) = RIPK2 (human) (UniProt O43353); settings: compound 10.0 µM
MKNK1 (human) = MKNK1 (human) (UniProt Q9BUB5)
MAPKAPK2 (human) = MAPKAPK2 (human) (UniProt P49137)
LCK (mouse) = settings: accession and sequence are those of the human protein
BTK (human) = BTK (human) (UniProt Q06187)
MARK1 (human) = MARK1 (human) (UniProt Q9P0L2); settings: compound 10.0 µM
EPHB2 (human) = EPHB2 (human) (UniProt P29323); settings: compound 10.0 µM
JAK2 JH1 JH2 (human) = JAK2 JH1 JH2 (human) (UniProt O60674); settings: compound 10.0 µM
EPHA4 (human) = EPHA4 (human) (UniProt P54764); settings: compound 10.0 µM

Chain of CaMK1 (human) (Q14012 whole entry, looked up): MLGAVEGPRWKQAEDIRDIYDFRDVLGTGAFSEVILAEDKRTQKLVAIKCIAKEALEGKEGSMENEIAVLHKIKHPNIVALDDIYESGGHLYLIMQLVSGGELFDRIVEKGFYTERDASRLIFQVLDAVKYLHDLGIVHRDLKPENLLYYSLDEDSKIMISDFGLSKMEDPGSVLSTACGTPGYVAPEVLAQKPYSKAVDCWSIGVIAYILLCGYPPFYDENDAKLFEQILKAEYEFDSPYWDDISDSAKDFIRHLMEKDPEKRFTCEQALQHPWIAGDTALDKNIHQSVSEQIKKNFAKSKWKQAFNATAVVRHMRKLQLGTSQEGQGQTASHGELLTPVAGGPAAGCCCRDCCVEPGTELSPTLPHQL
Chain of ERBB4 (human) (Q15303 whole entry, looked up): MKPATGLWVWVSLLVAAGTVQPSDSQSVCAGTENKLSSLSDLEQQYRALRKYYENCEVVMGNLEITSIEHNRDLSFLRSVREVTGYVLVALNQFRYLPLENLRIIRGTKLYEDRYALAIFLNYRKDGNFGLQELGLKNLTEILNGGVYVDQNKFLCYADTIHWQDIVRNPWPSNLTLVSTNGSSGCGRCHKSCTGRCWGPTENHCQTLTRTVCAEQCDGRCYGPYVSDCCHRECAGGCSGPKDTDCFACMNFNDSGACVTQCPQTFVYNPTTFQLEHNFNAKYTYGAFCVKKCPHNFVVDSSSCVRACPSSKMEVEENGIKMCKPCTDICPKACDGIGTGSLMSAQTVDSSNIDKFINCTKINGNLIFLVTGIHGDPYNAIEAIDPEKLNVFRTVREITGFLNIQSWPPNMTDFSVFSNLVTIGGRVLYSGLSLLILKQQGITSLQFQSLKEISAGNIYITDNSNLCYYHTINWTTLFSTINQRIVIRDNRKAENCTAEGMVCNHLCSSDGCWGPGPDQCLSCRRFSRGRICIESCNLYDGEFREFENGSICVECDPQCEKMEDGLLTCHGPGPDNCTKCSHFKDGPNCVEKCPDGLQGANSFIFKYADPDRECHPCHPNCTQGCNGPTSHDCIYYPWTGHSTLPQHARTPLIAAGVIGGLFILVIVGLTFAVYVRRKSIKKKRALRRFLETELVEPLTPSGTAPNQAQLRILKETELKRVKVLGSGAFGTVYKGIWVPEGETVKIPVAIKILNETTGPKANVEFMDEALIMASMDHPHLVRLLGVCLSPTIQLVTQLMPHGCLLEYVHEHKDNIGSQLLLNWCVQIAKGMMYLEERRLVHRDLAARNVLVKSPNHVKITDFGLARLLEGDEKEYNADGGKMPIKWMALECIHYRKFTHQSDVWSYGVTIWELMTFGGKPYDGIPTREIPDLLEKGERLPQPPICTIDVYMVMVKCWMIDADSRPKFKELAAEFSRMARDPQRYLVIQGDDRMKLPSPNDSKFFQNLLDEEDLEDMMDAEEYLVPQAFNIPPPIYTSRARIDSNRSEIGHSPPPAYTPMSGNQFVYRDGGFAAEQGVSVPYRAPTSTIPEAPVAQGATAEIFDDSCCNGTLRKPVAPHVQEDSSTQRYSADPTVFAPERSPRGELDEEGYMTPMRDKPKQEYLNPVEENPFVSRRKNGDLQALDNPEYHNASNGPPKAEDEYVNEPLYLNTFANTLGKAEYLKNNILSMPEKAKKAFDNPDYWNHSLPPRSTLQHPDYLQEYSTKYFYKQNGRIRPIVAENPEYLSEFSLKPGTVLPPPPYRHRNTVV
Chain of MST4 (human) (Q9P289 whole entry, looked up): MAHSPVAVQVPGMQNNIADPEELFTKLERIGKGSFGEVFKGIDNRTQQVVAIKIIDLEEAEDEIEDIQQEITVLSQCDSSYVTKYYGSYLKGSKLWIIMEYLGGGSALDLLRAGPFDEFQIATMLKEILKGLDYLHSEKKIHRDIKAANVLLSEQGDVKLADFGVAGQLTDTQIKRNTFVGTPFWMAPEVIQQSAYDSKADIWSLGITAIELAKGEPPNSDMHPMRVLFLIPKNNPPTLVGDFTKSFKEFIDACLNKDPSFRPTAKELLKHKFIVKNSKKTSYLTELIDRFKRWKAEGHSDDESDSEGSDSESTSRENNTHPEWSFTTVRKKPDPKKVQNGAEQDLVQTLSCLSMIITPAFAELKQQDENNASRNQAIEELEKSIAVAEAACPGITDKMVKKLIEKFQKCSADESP

Q: How did the residual activity (ERBB4 (human); compound 1.0 µM) turn out when `CN1C(=O)[C@@H](Cc2c[nH]c3ccccc23)NC1=S` was run?
A: 109%

Q: What about the residual activity (ERBB4 (human); compound 10.0 µM) of the same compound?
A: 104%

Q: And the residual activity (CaMK1 (human); compound 1.0 µM)?
A: 94%

Q: What about the residual activity (CaMK1 (human); compound 10.0 µM) of the same compound?
A: 94%

Q: And the residual activity (PRKACA (human); compound 1.0 µM)?
A: 95%

Q: What about the residual activity (PRKACA (human); compound 10.0 µM) of the same compound?
A: 93%

Q: What about the residual activity (PRKCA (human); compound 1.0 µM) of the same compound?
A: 97%

Q: And the residual activity (PRKCA (human); compound 10.0 µM)?
A: 96%

Q: What about the residual activity (MINK1 (human); compound 1.0 µM) of the same compound?
A: 103%

Q: And the residual activity (MINK1 (human); compound 10.0 µM)?
A: 99%

Q: What about the residual activity (EPHA2 (human); compound 1.0 µM) of the same compound?
A: 102%

Q: And the residual activity (EPHA2 (human); compound 10.0 µM)?
A: 96%

Q: What about the residual activity (MST4 (human); compound 1.0 µM) of the same compound?
A: 103%

Q: What about the residual activity (MST4 (human); compound 10.0 µM) of the same compound?
A: 112%

Q: And the residual activity (NUAK1 (human); compound 1.0 µM)?
A: 108%

Q: What about the residual activity (NUAK1 (human); compound 10.0 µM) of the same compound?
A: 101%

Q: What about the residual activity (CSK (human); compound 1.0 µM) of the same compound?
A: 98%

Q: What about the residual activity (CSK (human); compound 10.0 µM) of the same compound?
A: 110%

Q: What about the residual activity (PHKG1 (human); compound 1.0 µM) of the same compound?
A: 103%

Q: What about the residual activity (PHKG1 (human); compound 10.0 µM) of the same compound?
A: 97%

Q: And the residual activity (MARK2 (human); compound 1.0 µM)?
A: 110%

Q: And the residual activity (MARK2 (human); compound 10.0 µM)?
A: 109%

Q: And the residual activity (PAK7 (human); compound 1.0 µM)?
A: 119%

Q: What about the residual activity (PAK7 (human); compound 10.0 µM) of the same compound?
A: 99%

Q: And the residual activity (INSR (human); compound 1.0 µM)?
A: 88%

Q: What about the residual activity (INSR (human); compound 10.0 µM) of the same compound?
A: 106%

Q: What about the residual activity (INSRR (human); compound 1.0 µM) of the same compound?
A: 81%

Q: What about the residual activity (INSRR (human); compound 10.0 µM) of the same compound?
A: 87%

Q: What about the residual activity (DYRK2 (human); compound 1.0 µM) of the same compound?
A: 105%

Q: And the residual activity (DYRK2 (human); compound 10.0 µM)?
A: 107%

Q: What about the residual activity (RPS6KA5 KD1 KD2 (human); compound 1.0 µM) of the same compound?
A: 78%

Q: And the residual activity (RPS6KA5 KD1 KD2 (human); compound 10.0 µM)?
A: 90%

Q: What about the residual activity (CAMKK2 (human); compound 1.0 µM) of the same compound?
A: 91%

Q: What about the residual activity (CAMKK2 (human); compound 10.0 µM) of the same compound?
A: 86%

Q: What about the residual activity (CDK2 CCNA2 (human); compound 1.0 µM) of the same compound?
A: 77%

Q: What about the residual activity (CDK2 CCNA2 (human); compound 10.0 µM) of the same compound?
A: 93%

Q: And the residual activity (MAP2K1 (human); compound 1.0 µM)?
A: 85%

Q: And the residual activity (MAP2K1 (human); compound 10.0 µM)?
A: 109%

Q: What about the residual activity (NEK2 (human); compound 1.0 µM) of the same compound?
A: 86%

Q: And the residual activity (NEK2 (human); compound 10.0 µM)?
A: 86%

Q: What about the residual activity (HIPK3 (human); compound 1.0 µM) of the same compound?
A: 111%

Q: What about the residual activity (HIPK3 (human); compound 10.0 µM) of the same compound?
A: 102%

Q: What about the residual activity (MAPK15 (human); compound 1.0 µM) of the same compound?
A: 98%

Q: And the residual activity (MAPK15 (human); compound 10.0 µM)?
A: 103%

Q: And the residual activity (SRPK1 (human); compound 1.0 µM)?
A: 93%

Q: And the residual activity (SRPK1 (human); compound 10.0 µM)?
A: 89%

Q: What about the residual activity (NEK6 (human); compound 1.0 µM) of the same compound?
A: 89%

Q: What about the residual activity (NEK6 (human); compound 10.0 µM) of the same compound?
A: 119%

Q: And the residual activity (PRKAA1 or PRKAA2 (rat); compound 1.0 µM)?
A: 94%

Q: What about the residual activity (PRKAA1 or PRKAA2 (rat); compound 10.0 µM) of the same compound?
A: 102%

Q: And the residual activity (BRSK1 (human); compound 1.0 µM)?
A: 101%

Q: What about the residual activity (BRSK1 (human); compound 10.0 µM) of the same compound?
A: 103%

Q: What about the residual activity (RIPK2 (human)) of the same compound?
A: 112%

Q: And the residual activity (MKNK1 (human); compound 1.0 µM)?
A: 86%

Q: What about the residual activity (MKNK1 (human); compound 10.0 µM) of the same compound?
A: 78%

Q: What about the residual activity (MAPKAPK2 (human); compound 1.0 µM) of the same compound?
A: 85%

Q: What about the residual activity (MAPKAPK2 (human); compound 10.0 µM) of the same compound?
A: 96%

Q: What about the residual activity (LCK (mouse); compound 1.0 µM) of the same compound?
A: 116%

Q: What about the residual activity (LCK (mouse); compound 10.0 µM) of the same compound?
A: 111%

Q: What about the residual activity (BTK (human); compound 1.0 µM) of the same compound?
A: 99%

Q: And the residual activity (BTK (human); compound 10.0 µM)?
A: 89%

Q: `CCOC(=O)c1ccc(N2NC(=O)/C(=C/c3ccc([N+](=O)[O-])o3)C2=O)cc1` was tested. Which residual activity (ERBB4 (human); compound 10.0 µM) did it give?
A: 91%

Q: What about the residual activity (CaMK1 (human); compound 10.0 µM) of the same compound?
A: 102%

Q: And the residual activity (PRKACA (human); compound 10.0 µM)?
A: 95%

Q: What about the residual activity (PRKCA (human); compound 10.0 µM) of the same compound?
A: 96%

Q: And the residual activity (MINK1 (human); compound 10.0 µM)?
A: 73%

Q: And the residual activity (EPHA2 (human); compound 10.0 µM)?
A: 90%

Q: What about the residual activity (MST4 (human); compound 10.0 µM) of the same compound?
A: 87%

Q: What about the residual activity (MARK1 (human)) of the same compound?
A: 62%

Q: What about the residual activity (EPHB2 (human)) of the same compound?
A: 81%

Q: And the residual activity (JAK2 JH1 JH2 (human))?
A: 17%

Q: What about the residual activity (PAK7 (human); compound 10.0 µM) of the same compound?
A: 118%

Q: What about the residual activity (INSR (human); compound 10.0 µM) of the same compound?
A: 99%

Q: What about the residual activity (INSRR (human); compound 10.0 µM) of the same compound?
A: 106%

Q: And the residual activity (DYRK2 (human); compound 10.0 µM)?
A: 54%

Q: And the residual activity (RPS6KA5 KD1 KD2 (human); compound 10.0 µM)?
A: 62%

Q: What about the residual activity (CAMKK2 (human); compound 10.0 µM) of the same compound?
A: 125%

Q: What about the residual activity (CDK2 CCNA2 (human); compound 10.0 µM) of the same compound?
A: 110%

Q: And the residual activity (MAP2K1 (human); compound 10.0 µM)?
A: 29%

Q: And the residual activity (NEK2 (human); compound 10.0 µM)?
A: 125%

Q: What about the residual activity (HIPK3 (human); compound 10.0 µM) of the same compound?
A: 103%

Q: And the residual activity (MAPK15 (human); compound 10.0 µM)?
A: 86%

Q: And the residual activity (EPHA4 (human))?
A: 75%

Q: What about the residual activity (SRPK1 (human); compound 10.0 µM) of the same compound?
A: 76%

Q: And the residual activity (NEK6 (human); compound 10.0 µM)?
A: 106%

Q: What about the residual activity (PRKAA1 or PRKAA2 (rat); compound 10.0 µM) of the same compound?
A: 108%

Q: What about the residual activity (BRSK1 (human); compound 10.0 µM) of the same compound?
A: 86%

Q: What about the residual activity (RIPK2 (human)) of the same compound?
A: 134%

Q: And the residual activity (MKNK1 (human); compound 10.0 µM)?
A: 110%

Q: And the residual activity (MAPKAPK2 (human); compound 10.0 µM)?
A: 78%

Q: What about the residual activity (LCK (mouse); compound 10.0 µM) of the same compound?
A: 121%

Q: What about the residual activity (BTK (human); compound 10.0 µM) of the same compound?
A: 70%
